Where two headings read alike, the source gives them in different places.

The values that follow come from patent US10071063B2, “Specific mTOR inhibitors in the treatment of X-linked adrenoleukodystrophy” (FUNDACIÓN DE LA COMUNIDAD VALENCIANA CENTRO DE …, priority 2014, dated 2018).

For series [1], the system named is control and X-ALD fibroblasts. Put plainly: Immunoblot of LC3-II and p62 in fibroblasts treated or not with VLCFA. Type of series: cell-based, human. Conditions: excess of VLCFA. The procedure:
(§1) Skin biopsies to prepare fibroblasts were collected according to the institutional guidelines for sampling, including informed consent from the persons involved or their representatives. Primary human fibroblasts were cultured in DMEM (containing 10% fetal bovine serum, 100 U/ml penicillin and 100 μg streptomycin) at 37° C. in humidified 5% CO2/95% air. Unless otherwise stated, experiments were carried out with cells at 80% confluence. For starvation conditions (high proteolysis medium, H), cells were switched, after washing, from full growth medium (see above, low proteolysis medium, L) to Krebs-Henseleit medium (118.4 mM NaCl, 4.75 mM KCl, 1.19 mM KH2PO4, 2.54 mM MgSO4, 2.44 mM CaCl2.2H2O, 28.6 mM NaHCO3, 10 mM glucose) containing 10 mM Hepes, pH 7.4 (high proteolysis medium, H) and incubated for 4 h or less at 37° C.
(§2) Tissues were removed from euthanized mice and flash-frozen on liquid nitrogen. Frozen tissues and human fibroblasts samples were homogenized in RIPA buffer (Cell Signaling Technology) using a motor-driven grinder (Sigma-Aldrich), and then sonicated for 2 min at 4° C. in an Ultrasonic processor UP50H (Hielscher-Ultrasound Technology). Samples were subjected to polyacrylamide (10% acrylamide) gel electrophoresis for 60 min at […]. Resolved proteins were transferred onto nitrocellulose membranes and proteins were detected with ECL Western blotting analysis system followed by exposure to CL-XPosure Film (Thermo Scientific). Autoradiographs were scanned and quantified using a GS800 Densitometer (Bio-Rad).
Then, the LC3-II and p62 levels in cell extracts from control and X-ALD fibroblasts treated or not with VLCFA were determined by immunoblot analysis.
(A western blot detects proteins with antibodies after separation by electrophoresis.)

Series [2] has as its system control and X-ALD patient fibroblasts. As to the kind of experiment: Pulse-chase degradation of long-lived proteins in fibroblasts treated with VLCFA. Type of series: cell-based, human. Conditions: C26:0 50 μM 24 h, high proteolysis medium; for inhibition at 50 µM: Homo sapiens, Fibroblast, control fibroblasts. The protocol:
as §1
For pulse-chase experiments, human control and X-ALD patient fibroblasts were incubated for 48 h in fresh full medium with 1 μCi/ml [3H]valine (Hartmann Analytic Gmbh), followed by a 24 h chase in fresh full medium containing 10 mM L-valine to degrade short-lived proteins. Then, all cultures were incubated for the indicated times in Krebs-Henseleit medium with 10 mM Hepes, pH 7.4, containing 10 mM valine and the indicated additions. Protein degradation, which was analysed 1 h later to ensure maximal effects of the various additions and for only 3 h to avoid possible secondary effects, was calculated at two intervals of 1.5 h by measuring the net release of trichloroacetic acid-soluble radioactivity from the labelled cells into the culture medium and expressed as percentage of protein degraded. The contribution of lysosomal degradation to total protein degradation was calculated using 20 mM NH4Cl (Sigma-Aldrich) plus 100 μM leupeptin (Peptide Institute), as previously described (Fuertes G, et al, 2003, Biochem J 375, 75-86).
In X-ALD, VLCFA accumulate. The effect of the addition of an excess of hexacosanoic acid to fibroblasts isolated from controls and X-ALD patients was tested. First, the degradation of intracellular proteins was analyzed to determine if it was any alteration in control and X-ALD fibroblasts upon addition of an excess of VLCFA, by analyzing in pulse-chase experiments the degradation of long-lived proteins under starvation. Total protein degradation and also, separately, lysosomal protein degradation were estimated by procedures previously described (Fuertes G, et al, 2003, Biochem J 375, 75-86).

For series [3] the following is noted: cited from earlier work.
For series [4], the system named is Abcd1−/− mouse spinal cord. As to the kind of experiment: Oxidized proteins, ATP levels, proteasome activity and immunoproteasome subunits in spinal cord of temsirolimus-treated Abcd1−/− mice. Type of series: in vivo. Particulars: temsirolimus 20 mg/kg i.p.
From the text: (§3) All methods employed in this study were in accordance with the Guide for the Care and Use of Laboratory Animals published by the US National Institutes of Health (NIH publication No. 85-23, revised 1996) and the ethical committees of IDIBELL and the Generalitat de Catalunya. The generation and genotyping of Abcd1 null mice have been previously described. Mice used for experiments were on a pure C57BL/6J background. Abcd1 null and wild type mice were separated into control and treated groups. Temsirolimus (LC laboratories) was administered by intraperitoneal injections three times a week at a dose of 20 mg/kg for 3 months with alternate 3-weeks rest periods between each month of treatment. Control mice were given a placebo injection containing buffer only with the same frequency. Treadmill test was carried out exactly as previously described (López-Erauskin J, et al, 2011, Ann Neurol 70, 84-92). The latency to falling off the belt (time of shocks in seconds) and the number of received shocks were measured. Bar cross test was performed as previously described (López-Erauskin J, et al, 2011, Ann Neurol 70, 84-92). Placebo and drug treated mice within each litter were tested on the treadmill simultaneously and at the time of testing were not identified as to their treatment status.
Total RNA was isolated from homogenized spinal cord using the RNeasy mini kit (Qiagen), according to the manufacturer's instructions. RNA samples with RNA Integrity Number (RIN) above 8 and 28S/18S ratio higher than 1 were used for the experiments. Then, first strand cDNA was synthesized for each RNA sample using Superscript II reverse transcriptase (Invitrogen) and random primers. The expression of the candidate proteasome genes was analysed by RQ-PCR using TaqMan® Gene Expression Assays (Applied Biosystems).
Relative quantitation was carried out using the ‘Delta-Delta Ct’ (ΔΔCt) method with tubby RNA as endogenous control. Transcript quantification was performed in duplicate for each sample.
as §2
ATP levels were measured as previously described (Galino J, et al 2011, Antioxid Redox Signal 15, 2095-2107). For proteasome activity assays, tissues were homogenized in an ice-cold buffer (50 mM Tris-HCl pH 7.5, 1 mM dithiothreitol, 0.25 M sucrose, 5 mM MgCl2, 0.5 mM EDTA with 2 mM ATP), using a teflon-on-glass homogenizer, and centrifuged at 12,000×g for 10 min. Chymotrypsin-like activity of proteasomes was determined as described (Launay N, et el, 2013 Brain 136, 891-904), using Suc-LLVY-AMC as substrate. […] The free AMC fluorescence was quantified with a fluorescence multiplate FLUOstar OPTIMA FL reader (BMG) with excitation and emission wavelengths at 380 and 460 nm, respectively. […] All reactions were carried out in duplicate and readings were calibrated using standard solutions of the fluorophores.

The subject of series [5] is Abcd1−/− mouse spinal cord. Put plainly: Western blot of autophagy markers LC3-II and p62 in spinal cord of treated Abcd1−/− mice. Type of series: in vivo. Particulars: temsirolimus 20 mg/kg i.p. three times a week, 3 months with rest periods.
From the text: as §3, with “Bar cross test was performed as previously described (López-Erauskin J, et al, 2011, Ann Neurol 70, 84-92). Placebo and drug treated mice within each litter were tested on the treadmill simultaneously and at the time of testing were not identified as to their treatment status.” left out
(§4) Tissues were removed from euthanized mice and flash-frozen on liquid nitrogen. […] Resolved proteins were transferred onto nitrocellulose membranes and proteins were detected with ECL Western blotting analysis system followed by exposure to CL-XPosure Film (Thermo Scientific). Autoradiographs were scanned and quantified using a GS800 Densitometer (Bio-Rad).

The test system of series [6] is Abcd1−/−/Abcd2−/− mice. As to the kind of experiment: Treadmill test. It is filed as in vivo, mouse. Particulars: Abcd1−/−/Abcd2−/− mice at 20 months of age.
Series [7] concerns Abcd1−/−/Abcd2−/− mice. Put plainly: Immunohistochemistry of axonal degeneration markers in spinal cord of Abcd1−/−/Abcd2−/− mice. It is filed as in vivo, mouse.
From the text: as §3
Spinal cords were harvested from 20-month-old mice (wild type, Abcd1−/−/Abcd2−/− and Abcd1−/−/Abcd2−/− treated with temsirolimus), after perfusion with 4% paraformaldehyde and prepared and incubated for immunohistochemistry as described (López-Erauskin J, et al, 2011. Ann Neurol 70, 84-92).

The test system of series [8] is mTOR. Put plainly: p70S6K phosphorylation (mTOR activity) by Western blot in spinal cord of treated Abcd1−/− mice. Type of series: in vivo, mouse. Conditions: temsirolimus 20 mg/kg i.p. three times a week, 3 months with rest periods.
From the text: as §3, with “Bar cross test was performed as previously described (López-Erauskin J, et al, 2011, Ann Neurol 70, 84-92). Placebo and drug treated mice within each litter were tested on the treadmill simultaneously and at the time of testing were not identified as to their treatment status.” left out
as §4

Series [9] deals with Abcd1−/−/Abcd2−/− mice. Put plainly: Bar cross test. Conditions: Abcd1−/−/Abcd2−/− mice at 20 months of age. Type of series: in vivo, mouse.
In series [10] the test system is Abcd1 null mice. As to the kind of experiment: Dose tests of temsirolimus in Abcd1 null mice (body response, weight). Type of series: in vivo, mouse.
From the text: as §3
10 month-old Abcd1 null mice were treated with temsirolimus, or vehicle (control), administered by intraperitoneal injection as described previously. Doses tests in order to check mice's body response was firstly performed. […] Thus, to prevent side effects other treatment conditions: intraperitoneal injections of temsirolimus for 3 months with alternate 3-weeks rest periods between each month of treatment, were tested.

Setting [11] is: RT-PCR, Abcd1−/− mouse spinal cord.
Where [12] appears, read: spinal cord, 20-month-old Abcd1−/−/Abcd2−/− mice, to control levels.
Setting [13] is: spinal cord, Abcd1−/−/Abcd2−/− mice, to control levels, data not shown.
Setting [14] is: intraperitoneal injections for 3 months with alternate 3-weeks rest periods between each month.

In the case of `CCCCCCCCCCCCCCCCCCCCCCCCCC(=O)O` [VLCFA, Hexacosanoic acid], the LC3-II levels result in series [1] (X-ALD fibroblasts) is given as “no significant differences”; in series [1] (control fibroblasts), “marked decrease”. Also, the p62 levels result was “no significant differences” in [1] (X-ALD fibroblasts) and “increase” in [1] (control fibroblasts). Further, the inhibition (as a rule, the relative decrease from the control value, in per cent) at 50 µM in series [2] (read-out: inhibition of lysosomal degradation of long-lived proteins) was roughly 40%; in series [2] (read-out: inhibition of total degradation of long-lived proteins), roughly 15%. For the same molecule, the “inhibition of lysosomal degradation of long-lived proteins” value in series [2] (X-ALD fibroblasts) was “no significant inhibitions”. Besides, the “inhibition of total degradation of long-lived proteins” value in series [2] (X-ALD fibroblasts) is listed as “no significant inhibitions”.
Consider `CO[C@H]1C[C@@H]2CC[C@@H](C)[C@@](O)(O2)C(=O)C(=O)N2CCCC[C@H]2C(=O)O[C@H]([C@H](C)C[C@@H]2CC[C@@H](O)[C@H](OC)C2)CC(=O)[C@H](C)/C=C(\C)[C@@H](O)[C@@H](OC)C(=O)[C@H](C)C[C@H](C)/C=C/C=C/C=C/1C` [rapamycin], for which the water solubility result in [3] is “poor”.
On to `CO[C@H]1C[C@@H]2CC[C@@H](C)[C@@](O)(O2)C(=O)C(=O)N2CCCC[C@H]2C(=O)O[C@H]([C@H](C)C[C@@H]2CC[C@@H](OC(=O)C(C)(CO)CO)[C@H](OC)C2)CC(=O)[C@H](C)/C=C(\C)[C@@H](O)[C@@H](OC)C(=O)[C@H](C)C[C@H](C)/C=C/C=C/C=C/1C` [temsirolimus, (3S,6R,7E,9R,10R,12R, 14S,15E,17E,19E,21S,23S,26R,27R,34aS)-9,10,12,13,14,21,22,23,24,25,26,27,32,33,34,34a-Hexa deca hydro-9,27-dihydroxy-3-[(1R)-2-[1S,3R,4R)-4-hydroxy-3-methoxycyclohexyl]-10,21-dimethoxy-6,8,12,14,20,26-hexa meth 3H-pyrido [2,1-][1,4]oxa azaclo hentriacontine-1,5,11,28,29(4H,6H,31H)-pentone 4′-[2,2-bis (hydroxymethyl)propionate]], for which the chymotrypsin-like proteasome activity result in series [4] (Abcd1−/− mouse spinal cord lysates) is “normalized”. Also, in series [4] (Abcd1−/− mouse spinal cord), the ATP levels result is on record as “normalizing” and the “levels of oxidized proteins” value is “reduced considerably”. In addition, in series [4] (setting [11]), the “induction of immunoproteasome subunit β1i/LMP2” value is “prevented the induction” and the “induction of immunoproteasome subunit β5i/LMP7” value is “prevented the induction”. In series [5], the LC3-II levels result is recorded as “up-” and the p62 levels entry is recorded as “down regulated”. Also, the “ratio between the time length of the shocks and the number of shocks” value in series [6] was “normalized”. The “motor neurons health in spinal cord” value in series [7] (XALD mice) is “improve”. In series [7] (setting [12]), the “accumulation of APP (axonal damage marker)” value is reported as “reduced” and the “accumulation of synaptophysin (axonal damage marker)” value is recorded as “reduced”. In addition, in series [7] (setting [13]), the DNA oxidation entry was “reduced”, the “number of reactive astrocytes” value is on record as “reduced” and the “number of reactive microglia” value is given as “reduced”. In series [8], the “immunoreactivity for total p70S6K” value is “did not change” and the “phosphorylated p70S6K” value is “decrease”. In addition, in series [9], the number of slips result is given as “normalized” and the “time needed to cross the bar” value is reported as “normalized”. Besides, the body weight result in series [10] (continuous administration during 3 months, intraperitoneal, data not shown) is “important weight losses”. Also, in series [10] (setting [14]), the body weight entry was “without significant weight loss” and the locomotor performances result is “better”.
